melting point	Structure (SMILES)
228 to 230 °C	CNC(=O)C(Cc1ccc([N+](=O)[O-])cc1)NC(=O)Nc1n[nH]c(=S)s1 (stereo unspecified)
140 to 143 °C	CC(=O)Nc1c(C(=O)c2ccc(C)cc2)[nH]c2cc(Cl)ccc12
114 to 115 °C	Fc1ccc(-n2ncnc2-c2ccncc2)cc1
132 to 134 °C	COc1cc(OC)nc(NC(=O)NS(=O)(=O)Oc2ccccc2OCCCl)n1
58 °C	CCN(CC)CCOc1ccc(Nc2ncc3c(n2)N(C)C(=O)N(c2c(C)cccc2C)C3)cc1
158 to 160 °C	C/C(=C\C=C\c1ccccc1)C(=O)NCCCCCC(=O)NO
78 °C	CC(C)(C)OC(=O)CC(=O)c1ccc(C#N)s1
204 to 206 °C	CCN1CCN(c2cccc3c2CC(NC(=O)c2ccc(N4CCOCC4)cc2)CC3)CC1 (stereo unspecified)
122 °C	CCC1N=NC(c2ccccc2)=C(O)N1C (stereo unspecified)
84 to 87 °C	Nc1nn(-c2ccccc2)c(N)c1CN1CCN(c2cccc3c2OCCO3)CC1
116 to 118 °C	O=C1CCCC(=O)C1=CC=Cc1ccccc1
112 °C	CC1(C)C=C(c2cccnc2)c2cc(Cl)c(Cl)cc2OC1
102 °C	CC(=Cc1cccc([N+](=O)[O-])c1)C(=O)Oc1ccc(Cl)cc1
251 to 252 °C	Oc1cccc(-c2nc3n(n2)Cc2ccccc2-3)c1
133 to 137 °C	COc1nc(C)cnc1N(C(=O)OCC(C)C)S(=O)(=O)c1cccnc1-c1ccc(CC(C)C)cc1
112 to 120 °C	Cc1noc(NS(=O)(=O)c2ccccc2-c2ccc(-c3ncco3)cc2CN2C(=O)C(F)(F)c3ccccc32)c1C
151 to 153 °C	COC(=O)c1ccc(N2C(=O)CCC2(CO)CCO)c([N+](=O)[O-])c1 (stereo unspecified)
133 to 135 °C	CNC(=O)N(C)c1nnc(C(C)(C)CC#N)s1
> 241 °C	COc1ccccc1CN[C@H]1CCCN[C@H]1Cc1ccccc1 (relative stereo)
170 to 172 °C	O=C(O)c1cc(CCl)cnc1C(=O)O
77 to 78 °C	CC(=O)O[C@H]1CCCNC1=O
155 to 156 °C	CN1CC(CCN2CCN(c3ccc([N+](=O)[O-])cc3)CC2)OC1=O (stereo unspecified)
100 to 103 °C	CN1C(=O)CCC2(C)c3ccc(Sc4ccccc4F)cc3CCC12 (single isomer, unassigned; (+))

melting point	Structure (SMILES)
180 to 184 °C	Cc1ccc(S(=O)(=O)ON=C2CCOc3cc(Cl)c(Cl)cc32)cc1
247 to 249 °C	CC(C)c1ccc(-c2cc(-c3cccc(C(=O)O)c3)ccn2)cc1
168 to 172 °C	O=S(=O)(CCl)c1ccc(-n2cnnn2)cc1
124 to 126 °C	C(#CCOCC#CCCn1cnc2cnc3ccccc3c21)CCn1cnc2cnc3ccccc3c21
207 to 209 °C	FC(F)(F)c1cccc(Nc2ncnc(NCc3ccco3)n2)c1
270 °C	O=c1c2ccc(-c3nnn[nH]3)cc2oc2ccc(OCCCO)cc12
136 to 137 °C	CCN1C(=O)C(C)(C)C(=O)N(C)c2cc(CN(CCc3ccc(C)nc3C)Cc3scnc3C)ccc21
117 to 119 °C	CCN(CC)CC1CCCCN1CCNC(=O)N1c2ccc(Br)cc2C(=O)Nc2cccnc21 (stereo unspecified)
83 to 85 °C	CCOC(=O)c1cn(CC)c2cc(OS(=O)(=O)C(F)(F)F)c(F)cc2c1=O
136 to 138 °C	Cc1ccc2c(c1)Sc1ccc(Cl)cc1CC2N1CCN(C)CC1 (stereo unspecified)
69 to 91 °C	COc1nc(N)nc(OC(F)(F)F)n1
141 to 142 °C	COC(=O)c1ccc2ccc(S(=O)(=O)N(Cc3ccccc3)Cc3ccccc3)cc2c1
144 to 145 °C	Cc1cc(C2OC(=O)NC2=O)c(C)o1 (stereo unspecified)
220 °C	O=[N+]([O-])c1ccc2c(c1)C[C@H]1CSC(=S)N1C2
152 °C	C#Cc1c(O)c(C)c(C)c(O)c1C#C
64 to 65 °C	CCCCCN(CCCCC)C(=O)C(CCC(=O)OC)CS(=O)c1ccc(Cl)c(Cl)c1 (stereo unspecified)
183 to 185 °C	O=C(O)C1CCCc2c(-c3ccc(Cl)c(Cl)c3)noc2C1 (stereo unspecified)
99 to 101 °C	Fc1ccc(CCN2CCC(n3ccc4ccc(Br)cc43)CC2)cc1
307 to 311 °C	CCOC(=O)N1CCc2[nH]c(=O)n3nc(-c4ccccc4F)nc3c2C1
224 to 225 °C	O=C(O)c1cc(OCc2ccccn2)c(C(=O)c2ccccc2)c([N+](=O)[O-])c1
196 °C	CCOC(=O)N1CCN(c2ccc(-n3cc[nH]c3=O)cc2)CC1
126 °C	COc1ccc(CNc2nc(CCC(=O)O)nc3sc(Cl)cc23)cc1Cl
61 to 63 °C	O=c1oc2ccc(OC3CCCCO3)cc2s1 (stereo unspecified)

melting point	Structure (SMILES)
185 to 186 °C	CCCc1c(O)ccc2[nH]c(C(=O)OCC)cc12
77 to 78 °C	Cc1ccc(C(=O)NCC(C)O)cc1C (stereo unspecified)
71 to 72 °C	O=C(NCCNC(c1ccccc1)(c1ccccc1)c1ccccc1)C(CCO)NC(c1ccccc1)(c1ccccc1)c1ccccc1 (stereo unspecified)
75 to 77 °C	CC1(C)OC(C=Cc2cccs2)=CC1=O
187 to 190 °C	CC(C#N)(CNC(=O)c1nn(C2CCCCO2)cc1NC(=O)c1ccccn1)Cc1ccccc1 (stereo unspecified)
146 to 148 °C	Cc1ccc(C2COc3cc(O)ccc3C2c2ccc(OCCN3CCCCC3)cc2)cc1 (stereo unspecified)
139 to 140 °C	COc1ccc(-c2nncn2-c2ccccc2)cc1
137 to 138 °C	N#Cc1cnn2c(-c3ccncc3)ccnc12
182 to 184 °C	CCCNC(=O)C(C)Cc1ccc2c(c1)c(Cc1ccc(C(=O)NS(=O)(=O)c3ccccc3C)cc1OC)cn2C(C)C (stereo unspecified)
118 to 123 °C	CNc1cc(Oc2ccc(NC(=O)Nc3ccc(-c4cccnc4)c(C(F)(F)F)c3)cc2)ncn1
140 to 145 °C	C[C@H](OC(=O)Oc1ccc([N+](=O)[O-])cc1)C(=O)N[C@@H]1C(=O)Nc2c(F)cccc2O[C@@H]1C
87 to 89 °C	Cc1cc(-c2ccc(-c3ccco3)cc2)cc(S(N)(=O)=O)c1-n1ccc(C(F)(F)F)n1
187 to 189 °C	COc1c(N2C[C@H](CF)[C@](C)(N)C2)c(F)cc2c(=O)c(C(=O)O)cn([C@@H]3C[C@@H]3F)c12
114 °C	CN(C)C=Nc1ncc(-c2ccc(C(F)(F)F)cc2)cc1C(F)(F)F
55 to 58 °C	CC(=O)Cn1nc(C)oc1=O
164 to 166 °C	COc1c(Cl)ccc(-c2cc(N)c(Cl)c(C(=O)NOCC3CC3)n2)c1F
180 to 182 °C	O=C1OCCN1CCN1CCN(C2Cc3cc(Cl)ccc3Oc3ccc(F)cc32)CC1 (stereo unspecified)
93 °C	COc1cc(Nc2nccc(-c3ccc(N4CCCCC4CO)nc3)n2)cc(OC)c1OC (stereo unspecified)
95 to 95.5 °C	CCCc1c(OCCCSc2c(C(C)C)nn3ccccc23)ccc(C(C)=O)c1O
178 °C	Clc1ccc2[nH]c(Sc3ccccc3)c(C3=NCCN3)c2c1
137 to 140 °C	NC(=O)Cc1ccc(-c2ccc(F)cc2F)c(F)c1
168 °C	CCn1c2ccccc2c2cc(C=Cc3ccc([N+](=O)[O-])cc3)ccc21
214 to 215 °C	CN1CCN(C(=O)Oc2ccccc2)C1=C(C(=O)Oc1ccccc1)[N+](=O)[O-]

melting point	Structure (SMILES)
167 to 169 °C	COC(=O)c1ccc2c(c1)NC(=O)C(CCO)O2 (stereo unspecified)
58 to 59 °C	CCCCCCCCCCCCCCCCCCOCCSCCO
126 °C	CS(=O)(=O)c1ccc(Br)c([N+](=O)[O-])c1
110 to 111 °C	Fc1ccc(Cc2ccccc2N2CCN(c3ccncc3)CC2)cc1
178 to 179 °C	FC1CC(Nc2ncnc3[nH]ncc23)CCC1OCC(F)(F)c1ccccc1 (stereo unspecified)
238 to 241 °C	Cc1c(C(=O)c2ccc(Cl)cc2)oc2cccc(O)c12
193 to 195 °C	O=C(Nc1ccc(CCc2ccc(O)c(O)c2)cc1)C(=O)c1sc2ccccc2c1O
166 °C	Cc1c(NCC2CCCCO2)cc2oc(=O)[nH]c2c1F (stereo unspecified)
144 to 149 °C	CC(=O)N(C)c1cc(OCc2ccccc2)c2nc(C)n(C)c2c1
82 to 85 °C	CC1(C)CC(c2ccccc2)c2ccc(OCC3CO3)cc2O1 (stereo unspecified)
191 to 193 °C	CCOCOC1CCC2(C)C(C1)C(=O)CC1C2CCC2(C)C1CC1OC3(CCC(C)CO3)C(C)C12 (stereo unspecified)
84 to 85 °C	COc1cc(NCCCCCCN2C(=O)c3ccccc3C2=O)c2nccc(C)c2c1
205 to 207 °C	CCOC(=O)C1=CN(CC)c2cc(C#N)c(F)cc2C1
94 to 97 °C	Clc1cc(Cl)nc(-c2ccc(Sc3ccccc3)cc2)n1
128 to 129 °C	NC1=CN(Cc2ccc(Cl)cc2)CN=C1
152 to 153 °C	COC(=O)COc1ccc(S(=O)(=O)C(Br)(Br)Br)cc1
99 to 102 °C	CCCCCCCCOC(=O)Nc1ccccc1C1Cc2ccccc2N1 (stereo unspecified)
113 to 114 °C	CC(=O)CCN1CCC(=C2c3ccccc3CCc3ccccc32)CC1
89 to 93 °C	ClC[Si](c1ccc(Cl)cc1)(c1ccc(Cl)cc1)c1ccc(Cl)cc1
158 °C	CC(C)(C)Cn1cc(-c2ccc(Oc3ccccc3)cc2)c2c(N)ncnc21
143 to 146 °C	COc1cccc(N)c1C#N
74 to 76 °C	CCON=C(c1ccccc1COc1cc(C)ccc1C)c1ccnn1C
237 to 239 °C	COc1cc(C(=O)O)ccc1Cn1nnc2ccc(NC(=O)OC3CCCC3)cc21

Structure (SMILES)	melting point
Clc1ccc(C(Cl)(Cl)Cl)cn1	51 to 54 °C
N=C1NCCCN1Cc1ccc(Cl)nc1	220 °C
CC1(C)CC2(CC(C)(C)N1)NC(C)(CO)CO2 (stereo unspecified)	90 to 92 °C
Cc1ccc(C#N)c(C)c1COC(=O)[C@H]1[C@@H](C=C(Cl)C(F)(F)F)C1(C)C (relative stereo)	98 °C
O=C(O)CCSC1c2ccc(-c3nnn[nH]3)cc2COc2ccc(OCc3ccc4ccccc4n3)cc21 (stereo unspecified)	151 to 153 °C
O=Cc1ccc(O)c(CCl)c1	123 to 124 °C
CC(=O)OCCCc1cc2c(s1)-n1c(C)nnc1CN=C2c1ccccc1Cl	153 to 155 °C
OCc1cccc(-c2csc(-c3cn([C@H]4CN5CCC4CC5)nn3)c2)c1	211 °C
O=NN1CCCSc2ccccc21	85 to 86 °C
